The values that follow come from ChEMBL document CHEMBL1133809, “Synthesis of N-propargylphenelzine and analogues as neuroprotective agents” (Bioorg Med Chem Lett, 2001).

The IC50 is the point on the concentration scale where inhibition reaches its midpoint. Higher therefore signals lower potency.

The target of assay [1] is T1, Amine oxidase [flavin-containing] B (Rattus norvegicus, UniProt P19643).
T1 sequence (P19643 whole entry): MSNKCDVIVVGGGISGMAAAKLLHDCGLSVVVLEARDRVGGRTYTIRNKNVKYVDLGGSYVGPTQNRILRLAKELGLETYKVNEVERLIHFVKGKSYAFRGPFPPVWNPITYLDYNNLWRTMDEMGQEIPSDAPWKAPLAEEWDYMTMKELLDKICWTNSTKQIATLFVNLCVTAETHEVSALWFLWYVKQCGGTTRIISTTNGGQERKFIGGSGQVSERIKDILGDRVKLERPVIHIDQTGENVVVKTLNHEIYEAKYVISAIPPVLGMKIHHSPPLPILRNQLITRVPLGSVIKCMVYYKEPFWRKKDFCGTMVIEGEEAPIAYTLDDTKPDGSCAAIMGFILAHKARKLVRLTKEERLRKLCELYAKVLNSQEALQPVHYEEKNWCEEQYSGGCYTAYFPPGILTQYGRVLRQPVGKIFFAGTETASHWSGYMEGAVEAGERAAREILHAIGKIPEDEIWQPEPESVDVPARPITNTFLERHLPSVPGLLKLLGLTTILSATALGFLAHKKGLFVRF
The experiment in a line: In vitro ability to inhibit Monoamine oxidase B activity in rat whole brain in vitro.

Assay [2] concerns the target T2, Amine oxidase [flavin-containing] A (Rattus norvegicus, UniProt P21396).
T2 sequence (P21396 whole entry): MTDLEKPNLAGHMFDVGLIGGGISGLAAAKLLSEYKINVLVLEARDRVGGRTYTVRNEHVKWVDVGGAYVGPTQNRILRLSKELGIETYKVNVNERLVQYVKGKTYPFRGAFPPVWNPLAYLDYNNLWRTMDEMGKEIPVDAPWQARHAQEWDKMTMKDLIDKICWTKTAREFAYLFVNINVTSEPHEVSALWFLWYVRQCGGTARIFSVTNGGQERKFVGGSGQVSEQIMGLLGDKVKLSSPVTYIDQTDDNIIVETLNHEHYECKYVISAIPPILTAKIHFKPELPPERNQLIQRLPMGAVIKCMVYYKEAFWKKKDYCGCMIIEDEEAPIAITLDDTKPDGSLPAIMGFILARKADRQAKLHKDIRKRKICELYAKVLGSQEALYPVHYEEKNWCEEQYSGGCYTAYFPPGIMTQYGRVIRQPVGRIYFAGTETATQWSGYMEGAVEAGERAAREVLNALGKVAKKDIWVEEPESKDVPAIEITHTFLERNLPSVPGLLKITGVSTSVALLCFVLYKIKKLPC
In words: In vitro ability to inhibit Monoamine oxidase A activity in rat whole brain in vitro.

Assay [3] is filed under the species Mus musculus. In words: Compound tested for the prevention of DSP- 4- induced depletion of noradrenaline (NA) in mouse hippocampus ex vivo. Type of assay: functional.

On to `C#CCNNC/C=C/c1ccccc1`, for which the IC50 in assay [1] was 10.2 µM; in assay [2], 7.9 µM. The NA restoration in assay [3] was -7.21%.
Regarding `C#CCN(N)c1ccccc1`, the figures for the IC50 in assay [1] and in assay [2] were 1.01 µM and 11.3 µM, respectively. The NA restoration in assay [3] is reported as -49.82%.
As to `C#CCN(N)C/C=C/c1ccccc1`, the results for the IC50 in assay [1] and in assay [2] were 3.53 µM and 1.17 µM, respectively. For the same compound, in assay [3], the NA restoration is on record as -39.2%.
As for `C#CCNNCc1ccccc1`, the IC50 came out at 2.84 µM in assay [1] and 0.362 µM in assay [2]. Besides, the NA restoration in assay [3] came to 31.74%.
With `C#CCN(N)CCc1ccccc1`, the IC50 was found to be 0.0765 µM in assay [1] and 2.04 µM in assay [2]. Moreover, the NA restoration in assay [3] was 56.38%.
In the case of `C#CCNNCCc1ccccc1`, the results for the IC50 in assay [1] and in assay [2] were 3.18 µM and 1.85 µM, respectively. Moreover, in assay [3], the NA restoration came to 76.83%.
`C#CCN(N)Cc1ccccc1`: the IC50 came out at 0.121 µM in assay [1] and 1.56 µM in assay [2]. Also, in assay [3], the NA restoration is listed as 33.58%.
For `NNCCc1ccccc1` [PHENELZINE], the IC50 in assay [1] worked out at 0.0763 µM; in assay [2], 0.03 µM. Further, the NA restoration in assay [3] amounted to 43.48%.
In the case of `C#CCN(C)[C@H](C)Cc1ccccc1` [SELEGILINE], in assay [3], the NA restoration was 79.71%.
